Experimental data reported in ChEMBL document CHEMBL1201862, “PubChem BioAssay data set” (2004).
“And” between values parts separate entries of the source, which are not always exact repeats. Identical values can stand only once.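 Cells were grown in 96-well plates and exposed to each compound for 48 hours at five concentrations; endpoints were interpolated linearly between bracketing concentrations, or set to the highest concentration if not reached. GI50 is the concentration that inhibits growth by half.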 The source made the active and inactive calls. Rule as the data show it: active = GI50 up to about 1.1 µM and inactive = higher.

What was measured:
Assay in all cases: NCI-60 cell line screen, 48 h
786-0 = tested on: 786-0
A549 = tested on: A549
ACHN = tested on: ACHN
CAKI-1 = tested on: CAKI-1
COLO 205 = tested on: COLO 205
DU-145 = tested on: DU-145
HOP-62 = tested on: HOP-62
Hs-578T = tested on: Hs-578T
K562 = tested on: K562
M14 = tested on: M14
MCF7 = tested on: MCF7
MDA-MB-435 = tested on: MDA-MB-435
Malme-3M = tested on: Malme-3M
NCI-H226 = tested on: NCI-H226
NCI-H522 = tested on: NCI-H522
OVCAR-3 = tested on: OVCAR-3
OVCAR-4 = tested on: OVCAR-4
OVCAR-8 = tested on: OVCAR-8
RPMI-8226 = tested on: RPMI-8226
RXF 393 = tested on: RXF 393
SF-295 = tested on: SF-295
SF-539 = tested on: SF-539
SK-MEL-5 = tested on: SK-MEL-5
SNB-19 = tested on: SNB-19
SR = tested on: SR
TK-10 = tested on: TK-10
U-251 = tested on: U-251
UACC-257 = tested on: UACC-257
A498 = tested on: A498
CCRF-CEM = tested on: CCRF-CEM
EKVX = tested on: EKVX
HCC 2998 = tested on: HCC 2998
HCT-116 = tested on: HCT-116
HCT-15 = tested on: HCT-15
HL-60 = tested on: HL-60
HT-29 = tested on: HT-29
IGROV-1 = tested on: IGROV-1
KM12 = tested on: KM12
MDA-MB-231 = tested on: MDA-MB-231
MOLT-4 = tested on: MOLT-4
NCI-H23 = tested on: NCI-H23
NCI-H460 = tested on: NCI-H460
NCI/ADR-RES = tested on: NCI/ADR-RES
OVCAR-5 = tested on: OVCAR-5
PC-3 = tested on: PC-3
SF-268 = tested on: SF-268
SK-MEL-28 = tested on: SK-MEL-28
SK-MEL-2 = tested on: SK-MEL-2
SK-OV-3 = tested on: SK-OV-3
SN12C = tested on: SN12C
SW-620 = tested on: SW-620
T47D = tested on: T47D
UACC-62 = tested on: UACC-62
HOP-92 = tested on: HOP-92
MDA-N = tested on: MDA-N
SNB-75 = tested on: SNB-75
UO-31 = tested on: UO-31

O=[N+]([O-])c1ccc(OC2CC3C4C=CC3C2C4)c([N+](=O)[O-])c1 (stereo not drawn)
GI50 (786-0): 24.6 µM (inactive) and > 31.6 µM (inactive)
GI50 (A549): 31 µM (inactive) and 33.3 µM (inactive)
GI50 (ACHN): 37.4 µM (inactive) and > 31.6 µM (inactive)
GI50 (CAKI-1): 29.2 µM (inactive) and > 31.6 µM (inactive)
GI50 (COLO 205): 54 µM (inactive) and > 31.6 µM (inactive)
GI50 (DU-145): 45.8 µM (inactive) and > 31.6 µM (inactive)
GI50 (HOP-62): 45 µM (inactive) and > 31.6 µM (inactive)
GI50 (Hs-578T): 33.7 µM (inactive) and > 31.6 µM (inactive)
GI50 (K562): 30.8 µM (inactive) and > 31.6 µM (inactive)
GI50 (M14): 21.6 µM (inactive) and > 31.6 µM (inactive)
GI50 (MCF7): > 100 µM (inactive) and 61.4 µM (inactive)
GI50 (MDA-MB-435): > 31.6 µM (inactive) and 24.3 µM (inactive)
GI50 (Malme-3M): 31.4 µM (inactive) and 34.8 µM (inactive)
GI50 (NCI-H226): > 31.6 µM (inactive) and 42 µM (inactive)
GI50 (NCI-H522): 43.6 µM (inactive) and > 31.6 µM (inactive)
GI50 (OVCAR-3): 43.5 µM (inactive) and 29.4 µM (inactive)
GI50 (OVCAR-4): 22.8 µM (inactive) and > 31.6 µM (inactive)
GI50 (OVCAR-8): 39.2 µM (inactive) and > 31.6 µM (inactive)
GI50 (RPMI-8226): 0.0465 µM (active)
GI50 (RXF 393): 42.6 µM (inactive) and > 31.6 µM (inactive)
GI50 (SF-295): 16.5 µM (inactive) and > 31.6 µM (inactive)
GI50 (SF-539): > 31.6 µM (inactive) and 26.3 µM (inactive)
GI50 (SK-MEL-5): 39.8 µM (inactive) and 21 µM (inactive)
GI50 (SNB-19): 32.3 µM (inactive) and > 31.6 µM (inactive)
GI50 (SR): > 10 µM (inactive)
GI50 (TK-10): > 31.6 µM (inactive) and 33.7 µM (inactive)
GI50 (U-251): 37.6 µM (inactive) and > 31.6 µM (inactive)
GI50 (UACC-257): 20.9 µM (inactive) and > 31.6 µM (inactive)

B.CC(=O)OC1CN2CCC1CC2 (stereo not drawn)
GI50 (786-0): > 100 µM (inactive)
GI50 (A498): > 100 µM (inactive)
GI50 (A549): > 100 µM (inactive)
GI50 (ACHN): > 100 µM (inactive)
GI50 (CCRF-CEM): > 100 µM (inactive)
GI50 (DU-145): > 100 µM (inactive)
GI50 (EKVX): > 100 µM (inactive)
GI50 (HCC 2998): > 100 µM (inactive)
GI50 (HCT-116): > 100 µM (inactive)
GI50 (HCT-15): > 100 µM
GI50 (HL-60): > 100 µM (inactive)
GI50 (HOP-62): > 100 µM (inactive)
GI50 (HT-29): > 100 µM (inactive)
GI50 (Hs-578T): > 100 µM (inactive)
GI50 (IGROV-1): > 100 µM (inactive)
GI50 (K562): > 100 µM (inactive)
GI50 (KM12): > 100 µM (inactive)
GI50 (M14): > 100 µM (inactive)
GI50 (MCF7): > 100 µM (inactive)
GI50 (MDA-MB-231): > 100 µM (inactive)
GI50 (MDA-MB-435): > 100 µM (inactive)
GI50 (MOLT-4): > 100 µM (inactive)
GI50 (Malme-3M): > 100 µM (inactive)
GI50 (NCI-H226): > 100 µM (inactive)
GI50 (NCI-H23): > 100 µM (inactive)
GI50 (NCI-H460): > 100 µM (inactive)
GI50 (NCI/ADR-RES): > 100 µM (inactive)
GI50 (OVCAR-3): > 100 µM (inactive)
GI50 (OVCAR-5): > 100 µM (inactive)
GI50 (OVCAR-8): > 100 µM (inactive)
GI50 (PC-3): > 100 µM (inactive)
GI50 (RXF 393): > 100 µM (inactive)
GI50 (SF-268): > 100 µM (inactive)
GI50 (SF-295): > 100 µM (inactive)
GI50 (SF-539): > 100 µM (inactive)
GI50 (SK-MEL-28): > 100 µM (inactive)
GI50 (SK-MEL-2): > 100 µM (inactive)
GI50 (SK-MEL-5): > 100 µM (inactive)
GI50 (SK-OV-3): > 100 µM (inactive)
GI50 (SN12C): > 100 µM (inactive)
GI50 (SR): > 100 µM (inactive)
GI50 (SW-620): > 100 µM (inactive)
GI50 (T47D): > 100 µM (inactive)
GI50 (TK-10): > 100 µM (inactive)
GI50 (U-251): > 100 µM (inactive)
GI50 (UACC-62): > 100 µM (inactive)

CC(C)(C)OC(=O)N1NC(c2ccccc2)CC1c1ccccc1 (stereo not drawn)
GI50 (786-0): 38.3 µM (inactive)
GI50 (A498): 27.8 µM (inactive)
GI50 (A549): 13.8 µM (inactive)
GI50 (ACHN): 28.1 µM (inactive)
GI50 (CAKI-1): 35 µM (inactive)
GI50 (CCRF-CEM): 19 µM (inactive)
GI50 (COLO 205): 20 µM (inactive)
GI50 (DU-145): 27.2 µM (inactive)
GI50 (EKVX): 33.7 µM (inactive)
GI50 (HCC 2998): 38.5 µM (inactive)
GI50 (HCT-116): 29.7 µM (inactive)
GI50 (HCT-15): 22.1 µM
GI50 (HOP-62): 50.8 µM (inactive)
GI50 (HOP-92): 37.7 µM (inactive)
GI50 (HT-29): 26.7 µM (inactive)
GI50 (Hs-578T): 36.6 µM (inactive)
GI50 (K562): 31.7 µM (inactive)
GI50 (KM12): 20.7 µM (inactive)
GI50 (M14): 16.3 µM (inactive)
GI50 (MCF7): 23.7 µM (inactive)
GI50 (MDA-MB-435): 24.3 µM (inactive)
GI50 (MDA-N): 42.6 µM (inactive)
GI50 (MOLT-4): 24.8 µM (inactive)
GI50 (NCI-H226): 29.1 µM (inactive)
GI50 (NCI-H23): 17.4 µM (inactive)
GI50 (NCI-H460): 30.4 µM (inactive)
GI50 (NCI-H522): 31.6 µM (inactive)
GI50 (NCI/ADR-RES): 20.2 µM (inactive)
GI50 (OVCAR-3): 34.8 µM (inactive)
GI50 (OVCAR-5): 28.4 µM (inactive)
GI50 (OVCAR-8): 35.3 µM (inactive)
GI50 (RPMI-8226): 35.6 µM (inactive)
GI50 (RXF 393): 15.8 µM (inactive)
GI50 (SF-268): 65.2 µM (inactive)
GI50 (SF-295): 33.6 µM (inactive)
GI50 (SF-539): 42.5 µM (inactive)
GI50 (SK-MEL-5): 19.6 µM (inactive)
GI50 (SK-OV-3): 37.6 µM (inactive)
GI50 (SN12C): 45.1 µM (inactive)
GI50 (SNB-75): 17.1 µM (inactive)
GI50 (SR): 27.2 µM (inactive)
GI50 (SW-620): 45 µM (inactive)
GI50 (T47D): 13.5 µM (inactive)
GI50 (TK-10): 37.3 µM (inactive)
GI50 (UACC-257): 43.7 µM (inactive)
GI50 (UACC-62): 20.6 µM (inactive)
GI50 (UO-31): 15.7 µM (inactive)

CN(C)CC1CCCCCCCCCCC1=O (stereo not drawn)
GI50 (Hs-578T): 66.4 µM (inactive)
GI50 (IGROV-1): > 100 µM (inactive)
GI50 (SK-MEL-28): > 100 µM (inactive)
GI50 (SK-MEL-5): > 100 µM (inactive)
GI50 (SK-OV-3): 86.7 µM (inactive)
GI50 (SNB-75): > 100 µM (inactive)
GI50 (UACC-62): > 100 µM (inactive)
